The text below walks through data of patent US10815222B2, “Compounds for use in the treatment of kinetoplastid infection” (C.N.C.C.S. S.c.a.r.l. COLLEZIONE NAZIONALE DEI COMPOSTI …, priority 2016, dated 2020).

In one test the test system is Bloodstream form of Trypanosoma brucei, strain Lister 427. As to the kind of experiment: Trypanosoma brucei growth inhibition assay (CellTiter-Glo, 24 h). It counts as cell-based. The note with it: Trypanosoma brucei, read-out: T. Brucei GI EC50. As to the method:
Bloodstream form of Trypanosoma brucei, strain Lister 427 (provided by Prof. Miguel Navarro, Instituto de Parasitologia y Biomedicina “Lopez-Neyra” Avda. Conocimiento S/N Parque Tecnologico Ciencias de la Salud—Spain; ref. Navarro M. and Cross G. A. M. Molecular and Cellular Biology, 1996, Vol. 16, No. 7, pp. 3615-3625) were grown in IMDM Iscove's Modified Dulbecco's Medium (SIGMA #17633) supplemented with: 3.024 g/l sodium bicarbonate, hypoxanthine 1 mM, thymidine 0.16 mM, bathocuprione sulfonic acid 0.05 mM, cysteine 1.5 mM, ß-mercaptoethanol […] and 10% foetal bovine serum (heat-inactivated at 56° C. for 30 min). Parasites were grown at 37° C. in flasks with vented caps in a 5% CO2 incubator to a maximum cell density of about 2×10^6/ml and diluted every two-three days.
The compounds of the invention were dissolved in DMSO and transferred to assay plates by acoustic droplet ejection (ATS-100, EDC Biosystems, USA) in order to obtain an appropriate concentration and to keep the concentration of DMSO below or equal to 0.25% in the final assay volume of 30 μL. 1500 parasites resuspended in 30 μL of culture medium were then transferred to each well of a 384-well plate.
After an incubation period of 24 hours at 37° C., each well is added 15 μl of CellTiter-Glo® Reagent (Promega) and incubated at room temperature. 5-10 min post incubation, the plate is read using a luminometer (ViewLux®). A known inhibitor of the growth of T. brucei was used as the reference positive control.
With `CCC(=O)CCCN1CCN(C(=O)Oc2ccccc2)C(c2ncc(-c3ccc4ccccc4c3)[nH]2)C1` (centres unmarked) [phenyl 2-(5-(naphthalen-2-yl)-1H-imidazol-2-yl)-4-(4-oxohexyl)piperazine-1-carboxylate], the 50% effective concentration (EC50) lay in the range of 1010 to 5000 nM.

The same test, now with this note: Trypanosoma brucei; T. Brucei Growth Inibition Assay, class symbols; read-out: T. Brucei GI EC50.
For `COc1ccc2nc(C(F)(F)F)n(CC(=O)N3CC[C@@H](N(C)C)C[C@H]3c3ncc(-c4cc5ccccc5nc4OC)[nH]3)c2c1`, the EC50 is 510 to 1000 nM. Regarding `COc1ccc2nc(C(F)(F)F)n(CC(=O)N3CC[C@H](N4CCOCC4)C[C@H]3c3ncc(-c4cc5ccccc5nc4OC)[nH]3)c2c1` [2-(6-methoxy-2-(trifluoromethyl)-1H-benzo[d]imidazol-1-yl)-1-((2S,4S)-2-(5-(2-methoxyquinolin-3-yl)-1H-imidazol-2-yl)-4-morpholinopiperidin-1-yl)ethan-1-one], the 50% effective concentration (EC50) is below 100 nM. Same read-out and setting: with `Cc1[nH]c2ccc(F)cc2c1CC(=O)N1CCN(CC2CCOC2)CC1c1ncc(-c2ccc(-n3cccn3)cc2)[nH]1` (centres unmarked) the figure was 1010 to 5000 nM; with `COc1ccc2nc(C)n(CC(=O)N3CC[C@H](NCc4ccn(C)n4)C[C@H]3c3ncc(-c4cc5ccccc5nc4OC)[nH]3)c2c1`, 1010 to 5000 nM; with `COc1ccc2nc(C(F)(F)F)n(CC(=O)N3CC[C@H](NC4COC4)C[C@H]3c3ncc(-c4cc5ccccc5nc4OC)[nH]3)c2c1` [2-(6-methoxy-2-(trifluoromethyl)-1H-benzo[d]imidazol-1-yl)-1-((2S,4S)-2-(5-(2-methoxyquinolin-3-yl)-1H-imidazol-2-yl)-4-(oxetan-3-ylamino)piperidin-1-yl)ethan-1-one], below 100 nM. On the same count and under the same terms, under `COc1nc2ccccc2cc1-c1cnc(C2CN(CC3CCOC3)CCN2C(=O)Cn2nnc3ccccc32)[nH]1` (centres unmarked) stands 510 to 1000 nM; under `COc1nc2ccccc2cc1-c1cnc(C2CN(Cc3cccnc3)CCN2C(=O)Cc2c(C)[nH]c3ccc(F)cc23)[nH]1` (centres unmarked), 100 to 500 nM. Regarding `COc1ccc2nc(C(F)(F)F)n(CC(=O)N3CC[C@H](N4CCCC4)C[C@H]3c3ncc(-c4cc5ccccc5nc4OC)[nH]3)c2c1` [2-(6-methoxy-2-(trifluoromethyl)-1H-benzo[d]imidazol-1-yl)-1-((2S,4S)-2-(5-(2-methoxyquinolin-3-yl)-1H-imidazol-2-yl)-4-(pyrrolidin-1-yl)piperidin-1-yl)ethan-1-one], the concentration giving a half-maximal response (EC50) was below 100 nM. Same read-out and setting: with `COc1nc2ccccc2cc1-c1cnc(C2CN(CC3CCOC3)CCN2C(=O)Cc2sc3ccccc3c2C)[nH]1` (centres unmarked) the figure was 100 to 500 nM.

Take `CCC(=O)CCCN1CCN(C(=O)Cc2c(C)[nH]c3ccc(OC)cc23)C(c2ncc(-c3ccc4ccccc4c3)o2)C1` (centres unmarked) [6-(4-(2-(5-methoxy-2-methyl-1H-indol-3-yl)acetyl)-3-(5-(naphthalen-2-yl)oxazol-2-yl)piperazin-1-yl)hexan-3-one]: the concentration for a half-maximal effect (EC50) was 1010 to 5000 nM. On the same count and under the same terms, under `CCC(=O)CCCN1CCN(S(=O)(=O)c2ccc3ccccc3c2)C(c2ncc(-c3ccc4ccccc4c3)[nH]2)C1` (centres unmarked) stands 1010 to 5000 nM; under `CN1CCN(C(=O)Cc2ccncc2)C(c2ncc(-c3ccc4ccccc4c3)[nH]2)C1` (centres unmarked), 1010 to 5000 nM; under `COc1ccc2nc(C)n(CC(=O)N3CCN(C4CCOC4)C[C@H]3c3ncc(-c4cc5ccccc5nc4OC)[nH]3)c2c1` (some centres unmarked), 100 to 500 nM. Take `COc1ccc2[nH]c(C)c(CC(=O)N3CCN(CCCC(N)=O)CC3c3ncc(-c4ccc5ccccc5c4)[nH]3)c2c1` (centres unmarked): the EC50 fell in the range of 100 to 500 nM. Still for that read-out and setting: with `COc1nc2ccccc2cc1-c1cnc(C2CN(CC3CCOC3)CCN2C(=O)c2cc3cc(OCc4ccccc4)ccc3[nH]2)[nH]1` (centres unmarked) the figure was 1010 to 5000 nM; with `COc1nc2ccccc2cc1-c1cnc([C@@H]2CN(C3COC3)CCN2C(=O)Cn2c(C(F)(F)F)nc3ccccc32)[nH]1` [(S)-1-(2-(5-(2-methoxyquinolin-3-yl)-1H-imidazol-2-yl)-4-(oxetan-3-yl)piperazin-1-yl)-2-(2-(trifluoromethyl)-1H-benzo[d]imidazol-1-yl)ethan-1-one], below 100 nM; with `COc1ccc2nc(C)n(CC(=O)N3CCN(CC4CCOC4)C[C@H]3c3ncc(-c4cc5ccccc5n4C(=O)OC(C)(C)C)[nH]3)c2c1` (some centres unmarked), 1010 to 5000 nM. Still for that read-out and setting: with `COc1ccc2nc(C(F)(F)F)n(CC(=O)N3CC[C@H](NCc4ccn(C)n4)C[C@H]3c3ncc(-c4cc5ccccc5nc4OC)[nH]3)c2c1` [2-(6-methoxy-2-(trifluoromethyl)-1H-benzo[d]imidazol-1-yl)-1-((2S,4S)-2-(5-(2-methoxyquinolin-3-yl)-1H-imidazol-2-yl)-4-(((1-methyl-1H-pyrazol-3-yl)methyl)amino)piperidin-1-yl)ethan-1-one] the figure was below 100 nM.

For `COc1ccc2nc(C(F)(F)F)n(CC(=O)N3CCN(Cc4cocn4)C[C@H]3c3ncc(-c4cc5ccccc5nc4OC)[nH]3)c2c1` [(S)-2-(6-methoxy-2-(trifluoromethyl)-1H-benzo[d]imidazol-1-yl)-1-(2-(5-(2-methoxyquinolin-3-yl)-1H-imidazol-2-yl)-4-(oxazol-4-ylmethyl)piperazin-1-yl)ethan-1-one], the concentration giving a half-maximal response (EC50) is below 100 nM. In the case of `COc1nc2ccccc2cc1-c1cnc(C2CN(C(=O)OCc3ccccc3)CCN2C(=O)Cn2c(C)nc3ccccc32)[nH]1` (centres unmarked), the EC50 was 1010 to 5000 nM. As to `COc1ccc2nc(C(F)(F)F)n(CC(=O)N3CC[C@H](NCc4ccon4)C[C@H]3c3ncc(-c4cc5ccccc5nc4OC)[nH]3)c2c1` [1-((2S,4S)-4-((isoxazol-3-ylmethyl)amino)-2-(5-(2-methoxyquinolin-3-yl)-1H-imidazol-2-yl)piperidin-1-yl)-2-(6-methoxy-2-(trifluoromethyl)-1H-benzo[d]imidazol-1-yl)ethan-1-one], the 50% effective concentration (EC50) is below 100 nM.

Turning to `COc1ccc2cc(C)n(CC(=O)N3CCCCC3c3ncc(-c4cc5ccccc5nc4OC)[nH]3)c2c1` (centres unmarked), the concentration for a half-maximal effect (EC50) fell in the range of 100 to 500 nM. The same measure, in the same setting: with `COc1nc2ccccc2cc1-c1cnc(C2CN(CC3CCOC3)CCN2C(=O)Cn2c(C3CC3)nc3ccccc32)[nH]1` (centres unmarked) the figure was 100 to 500 nM.

On to `CCCCCCN1CCN(C(=O)Cc2c[nH]c3cccnc23)C(c2ncc(-c3ccc4ccccc4c3)[nH]2)C1` (centres unmarked), for which the EC50 is 1010 to 5000 nM.

As for `COc1nc2ccccc2cc1-c1cnc(C2CN(CC3CC3)CCN2C(=O)CC2=C(C)NC3C=CC=CC23)[nH]1` (centres unmarked), the concentration for a half-maximal effect (EC50) was in the range of 100 to 500 nM.

For the compound `COc1ccc2nc(C(F)(F)F)n(CC(=O)N3CC[C@H](NC4CCC4)C[C@H]3c3ncc(-c4cc5ccccc5nc4OC)[nH]3)c2c1` [1-((2S,4S)-4-(cyclobutylamino)-2-(5-(2-methoxyquinolin-3-yl)-1H-imidazol-2-yl)piperidin-1-yl)-2-(6-methoxy-2-(trifluoromethyl)-1H-benzo[d]imidazol-1-yl)ethan-1-one], the EC50 was below 100 nM.

With `COc1nc2ccccc2cc1-c1cnc([C@@H]2CN(CC3CCOC3)CCN2C(=O)Cn2c(C3CCC3)nc3ccccc32)[nH]1` (some centres unmarked), the EC50 was in the range of 100 to 500 nM.

In the case of `COc1nc2ccccc2cc1-c1cnc(C2CN(C3CCS(=O)(=O)CC3)CCN2C(=O)Cc2c(C)[nH]c3ccc(F)cc23)[nH]1` (centres unmarked), the EC50 was in the range of 100 to 500 nM. For the compound `COc1ccc2nc(C)n(CC(=O)N3CC[C@H](OC)C[C@H]3c3ncc(-c4cc5ccccc5nc4OC)[nH]3)c2c1` [1-((2S,4S)-4-methoxy-2-(5-(2-methoxyquinolin-3-yl)-1H-imidazol-2-yl)piperidin-1-yl)-2-(6-methoxy-2-methyl-1H-benzo[d]imidazol-1-yl)ethan-1-one], the EC50 was below 100 nM. The same measure, in the same setting: with `COc1nc2ccccc2cc1-c1cnc(C2CN(CC3CCOC3)CCN2C(=O)CN2C(=O)c3ccccc3C2=O)[nH]1` (centres unmarked) the figure was 510 to 1000 nM. On to `COc1ccc2nc(C(F)(F)F)n(CC(=O)N3CCC(N(C)Cc4cnccn4)C[C@H]3c3ncc(-c4cc5ccccc5nc4OC)[nH]3)c2c1` (stereo partly drawn) [2-(6-methoxy-2-(trifluoromethyl)-1H-benzo[d]imidazol-1-yl)-1-((2S)-2-(5-(2-methoxyquinolin-3-yl)-1H-imidazol-2-yl)-4-(methyl(pyrazin-2-ylmethyl)amino)piperidin-1-yl)ethan-1-one], for which the EC50 was below 100 nM. The same measure, in the same setting: under `COc1ccc2nc(C(F)(F)F)n(CC(=O)N3CCN(Cc4cnccn4)C[C@H]3c3ncc(-c4cc5ccccc5nc4OC)[nH]3)c2c1` [(S)-2-(6-methoxy-2-(trifluoromethyl)-1H-benzo[d]imidazol-1-yl)-1-(2-(5-(2-methoxyquinolin-3-yl)-1H-imidazol-2-yl)-4-(pyrazin-2-ylmethyl)piperazin-1-yl)ethan-1-one] stands below 100 nM. Turning to `COc1nc2ccccc2cc1-c1cnc(C2CN(CC3CCOC3)CCN2C(=O)c2c(-c3ccccc3)noc2C)[nH]1` (centres unmarked), the half-maximal effective concentration (EC50) lay in the range of 1010 to 5000 nM. In the case of `COc1nc2ccccc2cc1-c1cnc(C2CN(C(C)=O)CCN2C(=O)Cc2ccccc2)[nH]1` (centres unmarked), the EC50 lay in the range of 1010 to 5000 nM.

`CCCCCCN1CCN(C(=O)Cc2cn(C)c3ccccc23)C(c2ncc(-c3ccc4ccccc4c3)[nH]2)C1` (centres unmarked): the EC50 lay within 1010 to 5000 nM. Turning to `Cc1[nH]c2ccccc2c1CC(=O)N1CCN(CC2CC2)CC1c1ncc(-c2ccc3ccccc3c2)[nH]1` (centres unmarked), the concentration giving a half-maximal response (EC50) fell in the range of 100 to 500 nM. On the same count and under the same terms, under `COc1nc2ccccc2cc1-c1cnc([C@@H]2CN(CC3CCOC3)CCN2C(=O)Cn2c(C(C)(C)C)nc3ccccc32)[nH]1` (stereo partly drawn) [2-(2-(tert-butyl)-1H-benzo[d]imidazol-1-yl)-1-((2S)-2-(5-(2-methoxyquinolin-3-yl)-1H-imidazol-2-yl)-4-((tetrahydrofuran-3-yl)methyl)piperazin-1-yl)ethan-1-one] stands below 100 nM.
